Data as given in the supplement of paper PMC10307832.

How the values were obtained:
Assay in all cases: relative viability (nuclei count vs DMSO), 5 days (fraction); higher = more cells survive
[1] = compound: C=CCNC1=C2C[C@@H](C)C[C@H](OC)[C@H](O)[C@@H](C)/C=C(\C)[C@H](OC(N)=O)[C@@H](OC)/C=C\C=C(/C)C(=O)NC(=CC1=O)C2=O [17-AAG] + Cc1nc(NC(=O)N2CCC[C@H]2C(N)=O)sc1-c1ccnc(C(C)(C)C(F)(F)F)c1 [Alpelisib] (partner 2 µM)
How it was run: (§1)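 Lung cancer cell lines were pin-tool dosed in 1536-well plates on the day after seeding, with either a lone drug or a fixed anchor-drug dose plus five library-drug doses (not always all listed) in √10 steps. Nuclei were counted on 4× images after 5 days. Relative viability is the ratio of treated-well to vehicle-well nuclei counts, with each value a median of duplicate plates.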

[2] = compound: C=CCNC1=C2C[C@@H](C)C[C@H](OC)[C@H](O)[C@@H](C)/C=C(\C)[C@H](OC(N)=O)[C@@H](OC)/C=C\C=C(/C)C(=O)NC(=CC1=O)C2=O [17-AAG] + C[C@]1(O)C[C@@H](c2nc(-c3ccc4ccc(-c5ccccc5)nc4c3)c3c(N)nccn32)C1 [Linsitinib] (partner 1 µM)
How it was run: as §1

[3] = compound: C=CCNC1=C2C[C@@H](C)C[C@H](OC)[C@H](O)[C@@H](C)/C=C(\C)[C@H](OC(N)=O)[C@@H](OC)/C=C\C=C(/C)C(=O)NC(=CC1=O)C2=O [17-AAG] + CS(=O)(=O)N1CCN(Cc2cc3nc(-c4cccc5[nH]ncc45)nc(N4CCOCC4)c3s2)CC1 [Pictilisib] (partner 1 µM)
How it was run: as §1

[4] = compound: C=CCNC1=C2C[C@@H](C)C[C@H](OC)[C@H](O)[C@@H](C)/C=C(\C)[C@H](OC(N)=O)[C@@H](OC)/C=C\C=C(/C)C(=O)NC(=CC1=O)C2=O [17-AAG] + Nc1ncn([C@H]2C[C@H](O)[C@@H](CO)O2)c(=O)n1 [Decitabine] (partner 2 µM)
How it was run: as §1

| Cell Line | relative viability ([1]; first compound 0.00128 µM) | relative viability ([1]; first compound 0.004048 µM) | relative viability ([1]; first compound 0.0128 µM) | relative viability ([1]; first compound 0.128 µM) | relative viability ([2]; first compound 0.00128 µM) | relative viability ([2]; first compound 0.004048 µM) | relative viability ([2]; first compound 0.0128 µM) | relative viability ([2]; first compound 0.128 µM) | relative viability ([3]; first compound 0.00128 µM) | relative viability ([3]; first compound 0.004048 µM) | relative viability ([3]; first compound 0.0128 µM) | relative viability ([3]; first compound 0.128 µM) | relative viability ([4]; first compound 0.00128 µM) | relative viability ([4]; first compound 0.004048 µM) | relative viability ([4]; first compound 0.0128 µM) | relative viability ([4]; first compound 0.128 µM) | relative viability ([1]; first compound 0.04048 µM) | relative viability ([2]; first compound 0.04048 µM) | relative viability ([3]; first compound 0.04048 µM) | relative viability ([4]; first compound 0.04048 µM) |
| --- | --- | --- | --- | --- | --- | --- | --- | --- | --- | --- | --- | --- | --- | --- | --- | --- | --- | --- | --- | --- |
| HCC-827 | 1.03 | 1.05 | 0.997 | 0.899 | 0.902 | 0.958 | 0.946 | 0.855 | 1.21 | 1.03 | 0.923 | 1.02 | 0.279 | 0.363 | 0.308 | 0.306 | – | – | – | – |
| HCC-78 | 0.418 | – | 0.446 | 0.294 | 0.626 | – | 0.608 | 0.294 | 0.238 | – | 0.333 | 0.212 | 0.511 | 0.841 | 0.695 | 0.369 | 0.326 | 0.62 | 0.24 | 0.465 |
| NCI-H2085 | 0.825 | 1 | 0.934 | 0.671 | 0.9 | 0.844 | 1.02 | 0.533 | 0.474 | 0.416 | 0.448 | 0.529 | 0.498 | 0.512 | 0.588 | 0.495 | 0.852 | 0.849 | 0.475 | 0.57 |
| PC-3 [JPC-3] | 0.976 | 1.03 | 1.02 | 0.955 | 1 | 0.883 | 0.959 | 0.911 | 0.795 | 0.791 | 0.727 | 0.586 | 0.829 | 0.816 | 0.911 | 0.658 | – | – | – | 0.451 |
| NCI-H2342 | – | – | – | – | – | – | – | – | – | – | – | – | 0.735 | 0.686 | 0.739 | 0.619 | – | – | – | 0.77 |
| A-427 | 1.05 | 1.15 | 1.12 | 0.995 | 1.12 | 1.1 | 1.1 | 1.15 | 0.684 | 0.737 | 0.765 | 0.286 | 0.55 | 0.528 | 0.561 | 0.306 | 1.1 | 1.1 | 0.748 | 0.395 |
| H3255 | 0.672 | 0.716 | 0.498 | 0.154 | 0.953 | 1.01 | 0.798 | 0.188 | 0.424 | 0.453 | 0.463 | 0.154 | 0.788 | 0.566 | 0.488 | 0.198 | 0.26 | 0.201 | 0.203 | 0.231 |
| HCC-44 | 0.792 | 0.742 | 0.656 | 0.138 | 0.643 | 0.709 | 0.686 | 0.119 | 0.623 | 0.564 | 0.319 | 0.113 | 0.927 | 0.964 | 0.931 | 0.355 | 0.449 | 0.662 | 0.152 | 0.958 |
| NCI-H1734 | 0.708 | 0.759 | 0.716 | 0.16 | 0.87 | 0.838 | 0.878 | 0.18 | 0.447 | 0.468 | 0.361 | 0.151 | 0.502 | 0.536 | 0.46 | 0.142 | 0.289 | 0.308 | 0.205 | 0.242 |
| NCI-H2228 | 0.781 | 0.273 | 0.16 | 0.153 | 0.614 | 0.264 | 0.171 | 0.141 | 0.346 | 0.153 | 0.128 | 0.102 | – | – | – | – | 0.19 | 0.15 | 0.148 | – |
| ABC-1 | 1.05 | 1.19 | 0.691 | 0.919 | 0.866 | 0.773 | 0.876 | 0.816 | 0.794 | 0.777 | 0.829 | 0.651 | 1.08 | 1.16 | 1.24 | 0.666 | 0.976 | 0.761 | 0.81 | 1.2 |
| ChaGo-K-1 | – | – | – | – | – | – | – | – | 0.759 | 0.801 | 0.7 | 0.26 | 0.444 | 0.55 | 0.491 | 0.428 | – | – | 0.477 | 0.514 |
| NCI-H1650 | – | – | – | – | – | – | – | – | 0.49 | 0.212 | 0.128 | 0.144 | 0.384 | 0.33 | 0.185 | 0.134 | – | – | 0.173 | 0.165 |
| EBC-1 | 0.828 | 0.197 | 0.186 | 0.168 | 0.851 | 0.579 | 0.162 | 0.12 | 0.477 | 0.157 | 0.13 | 0.143 | – | – | – | – | 0.159 | 0.139 | 0.185 | – |
| SW 900 | – | – | – | – | – | – | – | – | – | – | – | – | 0.45 | 0.368 | 0.332 | 0.181 | – | – | – | 0.257 |
| NCI-H1703 | 0.366 | 0.152 | 0.141 | 0.134 | 0.3 | 0.687 | 0.115 | 0.0982 | 0.235 | 0.181 | 0.188 | 0.141 | – | – | – | – | 0.155 | 0.148 | 0.168 | – |
| CAL-12T | 1.43 | 1.09 | 0.993 | 0.658 | 0.764 | 0.815 | 0.73 | 0.276 | 0.541 | 0.601 | 0.417 | 0.193 | – | – | – | – | 0.706 | 0.425 | 0.377 | – |
| NCI-H1563 | 0.964 | 0.853 | 0.616 | 0.514 | 1.17 | 0.952 | 0.668 | 0.622 | 0.67 | 0.647 | 0.604 | 0.563 | – | – | – | – | 0.591 | 0.623 | 0.614 | – |
| NCI-H2170 | 0.821 | 0.723 | 0.426 | 0.178 | – | – | – | – | 0.279 | 0.284 | 0.167 | 0.175 | 0.375 | 0.47 | 0.291 | 0.152 | 0.244 | – | 0.153 | 0.336 |
